Experimental data as given in US20200115417A1, “A CYCLIC PEPTIDE AND PHARMACEUTICAL COMPOSITION COMPRISING THE SAME FOR INHIBITING PROLIFERATION OF HEV” (priority 2018, published 2020).
“Also recorded” adds a separate entry of the source. Where no end group is shown, it is not given here.

Columns and labels:
[1] = molecular target: T1, HEV ORF3 and human TSG101 proteins (Homo sapiens, UniProt Q99816); assay: In vitro His-pull down assay, ORF3-TSG101 interaction; assay type: binding; conditions: for interaction between ORF3 and TSG101: western blot
T1 construct: made in house; host or cells: ORF3-his: E. coli BL21 (DE3); TSG101-myc: coupled in vitro transcription-translation (TNT T7 kit, Promega; rabbit reticulocyte lysate) from pGBKT7 TSG101
T1 sequence (Q99816 1-390): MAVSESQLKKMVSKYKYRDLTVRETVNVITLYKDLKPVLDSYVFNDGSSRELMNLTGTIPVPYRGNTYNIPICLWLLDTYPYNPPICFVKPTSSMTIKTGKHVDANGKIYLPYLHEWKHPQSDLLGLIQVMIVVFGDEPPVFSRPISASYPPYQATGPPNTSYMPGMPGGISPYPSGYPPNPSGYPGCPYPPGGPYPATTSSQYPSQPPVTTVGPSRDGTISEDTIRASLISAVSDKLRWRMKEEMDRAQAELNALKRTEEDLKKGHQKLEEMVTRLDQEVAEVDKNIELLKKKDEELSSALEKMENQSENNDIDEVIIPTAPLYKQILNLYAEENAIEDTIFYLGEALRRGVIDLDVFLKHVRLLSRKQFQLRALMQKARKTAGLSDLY
Method: (§1) pGBKT7 RdRp, TSG101 and ORF4 plasmids, in which coding sequence for RdRp, TSG101 and ORF4 is cloned under the control of the T7 promoter along with a N-terminal myc epitope tag was used for in vitro production of HEV RdRp, ORF4 and human TSG101 proteins. A coupled in vitro transcription-translation kit (TNT T7 kit) was used, following manufactures guidelines (Promega, Wis., USA). Aliquots of the TNT expressed proteins were mixed with 2× Laemelli buffer [125 mM Tris (pH 6.8), 4% SDS, 20% glycerol, 100 mM DTT and 0.02% bromophenol blue], incubated at 950 C for 5 minutes, resolved by SDS PAGE and western blotted with anti-myc antibody to confirm protein expression.
An in vitro His-pull down assay was performed to monitor whether cyclic peptide inhibits the interaction between HEV ORF3 and human TSG101 proteins. His tagged ORF3 protein was purified from E. coli BL21 (DE3) following previously described protocols (50). Ni-NTA super flow agarose (Thermo Scientific, Massachusetts, USA) bound ORF3-his was equally aliquoted into separate 1.5 ml tubes followed by addition of TNT generated mock lysate, RdRp-myc lysate, TSG101-myc lysate, ORF4-myc lysate and CP11 (1 μM or 10 μM) in the required combinations in phosphate buffered saline (PBS; 10 mM PO43-, 137 mM NaCl, 2.7 mM KCl) supplemented with protease inhibitor cocktail. Samples were incubated on a flip flop shaker at 4° C. for 1 hour, followed by three washes in PBS. 30p1 of 2× Laemelli buffer was added to the beads and incubated at 950 C for 5 minutes. Aliquots of the eluted proteins were resolved by SDS-PAGE and western blotting was done using anti-myc and anti-ORF3 antibodies.
Empty pGBKT7 vector was translated in parallel (denoted as mock lysate) to rule out non-specific cross reactivity of myc antibody with proteins present in the rabbit reticulocyte lysate. RdRp, TSG101 and ORF4 plasmid containing samples produced bands corresponding to their expected size (FIG. 1B). Two non-specific bands were detected in all samples (denoted by *). […]

[2] = system: p6 HEV; assay: QRT-PCR of intracellular p6 HEV sense strand RNA; assay type: cell-based; conditions: 10 μM CP11 every alternate day for 6 days; Huh7 cells; normalized to GAPDH
Method: (§2) The genomic RNAs of p6 HEV and p6 HEV-Luc were synthesized in vitro and size/integrity was monitored by formaldehyde agarose gel electrophoresis. ORF4-Huh7 cell line were prepared as reported (48) and maintained in Dulbecco's modified eagle medium containing 10% fetal calf serum, 50 IU/ml penicillin and streptomycin in 5% CO2. 200 μg/ml hygromycin was added to the cells during routine maintenance. Cells were then electroporated with genomic RNAs of p6 HEV and p6 HEV-Luc in a 4 mm cuvette at 200 Volt, 950 μF and infinite resistance. Electroporated cells were maintained in complete media for 5 days prior to the treatment with CP11.
On 6th day post-electroporation/post-infection, HEV infection model was treated every alternate day with 10 μM of CP11 for 6 days followed by measurement of cell viability, quantification of replication of the viral genome and release of the progeny viruses. […]
For measuring levels of p6 HEV sense RNA and host GAPDH RNA, cDNA was synthesized using random hexamers and Superscript III reverse transcriptase. For subsequent quantitative real time, FP of sequence “[…]” (SEQ ID NO:3) and RP of sequence “accgggacagcgtgga” (SEQ ID NO:4) were used for p6 HEV sense and FP of sequence “[…]” (SEQ ID NO:5) and RP of sequence “[…]” (SEQ ID NO:6) were used for host GAPDH RNA.

[3] = system: ORF4 and ORF3; assay: In vitro His-pull down assay, ORF3-ORF4 interaction; assay type: binding, HEV; conditions: 1 μM in the reaction mix; western blot
Method: as §1
An in vitro His-pull down assay was performed to monitor whether cyclic peptide inhibits the interaction between HEV ORF3 and human TSG101 proteins. His tagged ORF3 protein was purified from E. coli BL21 (DE3) following previously described protocols (50). […]
Empty pGBKT7 vector was translated in parallel (denoted as mock lysate) to rule out non-specific cross reactivity of myc antibody with proteins present in the rabbit reticulocyte lysate. […] Two non-specific bands were detected in all samples (denoted by *). […]

[4] = system: p6 HEV; assay: ELISA of viral capsid protein ORF2 in viruses released to culture medium; assay type: cell-based; conditions: 10 μM CP11 treated samples; Huh7 cells
Method: (§3) For estimation of the amount of virus released to the culture medium, medium from the above samples were collected and clarified by centrifugation at 7197×g, 4° C. for 15 minutes. 8% PEG (polyethylene glycol) 6000 and 0.4 M NaCl (final concentration) was added to the clarified samples and the mixture was incubated at 0° C. for 16 hours, followed by centrifugation at 20,000×g for 30 minutes. The pellet was resuspended in PBS and RNA was isolated using QIAamp Viral RNA Mini kit. Intracellular RNA was isolated using TRI reagent (MRC, Ohio, USA), following manufactures protocol.
An ELISA was standardized using purified recombinant ORF2 protein (112-608aa region) as the antigen and a rabbit polyclonal anti-ORF2 antibody, which was earlier generated and characterized in our laboratory (48). Specificity of the assay was monitored by including appropriate controls such as rabbit preimmune serum and competition with the peptide, which was used to generate the antibody. […]
For ELISA mediated quantification of p6 HEV present in the culture medium, PEG 6000 precipitated virus was resuspended in PBS and coated onto the ELISA plate overnight at 4° C. […]

[5] = system: g-1 HEV; assay: Release of g-1 HEV from infected ORF4-Huh7 cells; assay type: cell-based; conditions: g-1 HEV clinical isolate, 10 μM CP11 every alternate day for 6 days
Method: For infection studies, the HEV infection model was prepared by infecting 4×10^5 ORF4-Huh7 cells with 8×10^6 genome copies of the g-1 HEV clinical isolate for one hour, followed by three times washing of infected cells in PBS and maintenance in complete media for 5 days prior to treatment with CP11.
(§4) On 6th day post-electroporation/post-infection, HEV infection model was treated every alternate day with 10 μM of CP11 for 6 days followed by measurement of cell viability, quantification of replication of the viral genome and release of the progeny viruses.
as §3

[6] = system: p6 HEV-Luc replicon; assay: p6 HEV-Luc replicon Gaussia luciferase assay; assay type: cell-based; conditions: 10 μM CP11 for 48 hours; Huh7 cells; normalized to cell viability
Method: Possible effect of CP11 on HEV replication was investigated using a Huh7 cell-based model of p6 HEV replicon expressing luciferase. Luciferase assay was done through well-known methods. Briefly, Huh7 cells were electroporated with in vitro synthesized capped genomic RNA of p6 HEV-Luc and maintained in complete media for 5 days prior to the treatment with the cyclic peptide. 6th day post electroporation, 10 μM CP11 was added for 48 hours. Gaussia luciferase activity in the culture media was measured using Renilla luciferase assay kit (Promega, Wisconsin, USA). Luciferase values were normalized to that of the cell viability assay, and plotted as mean±SEM.

[7] = system: p6 HEV expressing Huh7 cells; assay: MTT cell viability assay; assay type: cell-based, human; conditions: 10 μM CP11 every alternate day for 6 days
Method: as §2, §4
Cell viability was measured by MTT [3-(4,5-dimethyl-2-thiazolyl)-2,5-diphenyl-2H-tetrazolium bromide] assay using cell titer 96 non-radioactive cell proliferation assay kit.

In the case of “CP11: Peptide 11 (CGWIYWNV; SEQ ID NO:1), cyclized and conjugated with the linear Tat peptide (CGRKKRRQRRRPPQ; SEQ ID NO:2) (also: peptide 11 cyclized, mode not given here, conjugated to linear Tat peptide, linkage not given here)”, the “interaction between ORF3 and TSG101” value ([1]; 1 μM in the reaction mix) is reported as “significantly reduced”, the “interaction between ORF3 and TSG101” value ([1]; 10 μM of CP11 in the reaction mixture) is reported as “completely inhibited” and the “inhibition of the interaction between ORF3 and TSG101 proteins, compared with other peptides” value ([1]; out of several cyclic peptides screened) is reported as “most efficiently”. For the same substance, the “viral sense strand RNA level in cells” value [2] was “significant increase”, the “interaction between ORF4 and ORF3” value [3] was “remains unaffected” and the “ORF2 level in PEG 6000 precipitated virus from culture medium” value [4] was “significantly less”. For the same substance, the “block of release of g-1 HEV” value [5] was “approximately 90%”, the “luciferase activity (viral replication/RNA stability)” value [6] was “no effect” and the “cytotoxic effect (cell viability, MTT)” value [7] was “ruled out the possible cytotoxic effect; also recorded: without showing any cytotoxicity”.
